The results in this text go back to EP0190496A2, “Piperidine derivatives having a gastro-intestinal activity” (BEECHAM GROUP PLC, priority 1984, dated 1986).

Where a name gives a salt, the structure may show the parent alone.

The subject of the first experiment is ethanol-induced gastric mucosal erosive damage in the rat. Put plainly: Inhibition of ethanol-induced gastric mucosal erosive damage (antiulcer test). The following applies: Oral Dose 25 µmol/kg, 90 min before 1 ml/rat p.o. absolute ethanol; stomach scored 10 min later; * p<0.05, ** p<0.01, *** p<0.001 (Mann-Whitney U-test). Format: in vivo.
Text: The object of the experiment was to test the ability of drugs to inhibit a state of gastric submucosal haemorrhage induced by absolute ethanol in the conscious rat.
The procedure used was as follows. Male rats, preferably Wistars, were fasted overnight in wire mesh bottom cages, so as to prevent copraphagy. Water was allowed ad. libitum. Six or seven rats per cage were regarded as suitable, and the weight range of the rats used was between 175 and 300g. Water was removed one hour prior to treatment. The rats were then randomly allocated to their respective treatment groups, so that there were no less than five rats per group. One control group was always included.
Each rat was pre-dosed with lml/100g of control or test drug, dissolved or suspended in 0.5% methyl cellulose or 1% Tween 80 in water, via an oral dosing needle. Ninety minutes later each rat was dosed with lml/rat p.o. of absolute ethanol. Ten minutes after the absolute ethanol, the rats were killed by an intracardiac injection of Expiral^*. The stomachs were excised, cut open along the greater curvature to expose the mucosal surface, washed in tap water to remove debris, then stretched on a cork board for examination.
A subjective macroscopic examination of the stomach was carried out with a damage score being allocated to each stomach. Two observers were usually used, one of whom scored the results in a 'blinded' manner. The results were then analysed by the Mann-Whitney U-test, with p<0.05 being regarded as statistically significant.
^*(sodium pentobarbitone solution 200mg/ml)
Regarding “(+) cis-l-(4'-Fluorobenzyl)-4-(4'-fluorophenyl)-3-(3', 4'-methylenedioxyphenoxymethyl)piperidine hydrochloride [Example 12]”, the “% Inhibition of gastric erosions” value is 84.9** %.
Still for that read-out and setting: for “(+)cis-1-Benzyl-4-(4'-fluorophenyl)3-(3',4'-methylene- dioxyphenoxymethyl)piperidine hydrochloride [Example 7]” the value was 63.1** %; for “(-) cis-l-(4'-Fluorobenzyl)-4-(4'-fluorophenyl)-3-(3', 4'-methylenedioxyphenoxymethyl)piperidine hydrochloride [Example 13]”, 46** %; for “(-)cis-l-Benzyl-4-(4'-fluorophenyl)-3-(3',4'-methylene- dioxyphenoxymethyl)piperidine hydrochloride [Example 8]”, 46.8* %.

The experiment is the same for the next values; noted with them: Oral Dose 25 µmol/kg, 90 min before 1 ml/rat p.o. absolute ethanol; stomach scored 10 min later; * p<0.05, ** p<0.01, *** p<0.001 (Mann-Whitney U-test); read-out: % Inhibition of gastric erosions.
As for `COc1ccccc1[C@@H]1CCN(Cc2ccccc2)C[C@H]1COc1ccc2c(c1)OCO2` (racemic) [Example 2, (±)trans 1-Benzyl-4-(2'-methoxyphenyl)-3-(3',4'-methylenedioxyphenoxymethyl)piperidine hydrochloride], the inhibition in vivo at 25 µmol/kg was 47.7%.
With `Fc1ccc(C2=CCN(Cc3ccccc3)CC2COc2ccc3c(c2)OCO3)cc1` (racemic) [Example 11, (±)-1-Benzyl-4-(4'-fluorophenyl)-3-(3,4-methylenedioxy-phenoxymethyl)-1,2,3,6-tetrahydropyridine hydrochloride], the inhibition in vivo at 25 µmol/kg is 26%.
As to `Cc1ccccc1[C@@H]1CCN(Cc2ccccc2)C[C@H]1COc1ccc2c(c1)OCO2` (racemic) [Example 17, (±)-trans-1-Benzyl-3-(3',4'-methylenedioxyphenoxy-methyl)-4-(2'-methylphenyl)piperidine hydrochloride], the inhibition in vivo at 25 µmol/kg was determined as 31%.
Same read-out and setting: to `Fc1ccc([C@@H]2CCN(Cc3ccccc3)C[C@H]2COc2ccc3c(c2)OCO3)cc1` (single isomer, unassigned) [Example 1, (-)-trans-l-Benzyl-4-(4'-fluorophenyl)-3-(3',4'-methylenedioxyphenoxymethyl)piperidine hydrochloride] belongs 66%; to `Fc1ccc(CN2CC[C@@H](c3ccc(F)cc3)[C@H](COc3ccc4c(c3)OCO4)C2)cc1` (single isomer, unassigned) [Example 9, (-) trans-l-(4'-fluorobenzyl)-4-(4'-fluorophenyl)-3-(3',4'-methylenedioxyphenoxymethyl)piperidine hydrochloride], 71%; to `Fc1ccc([C@@H]2CCN(Cc3ccccc3F)C[C@H]2COc2ccc3c(c2)OCO3)cc1` (single isomer, unassigned) [Example 14, (-) trans-l-(2'-Fluorobenzyl)-4-(4'-fluorophenyl)-3-(3',4-methylenedioxyphenoxymethyl)piperidine hydrochloride], 39%.
On the same count and under the same terms, to `c1ccc(CN2CC[C@@H](c3ccccc3)[C@H](COc3ccc4c(c3)OCO4)C2)cc1` (single isomer, unassigned) [Example 15, (-) trans-l-Benzyl-3-(3',4'-methylenedioxyphenoxy-methyl)-4-phenylpiperidine hydrochloride] belongs 67%.
The same measure, in the same setting: for `Fc1ccc(CN2CC[C@@H](c3ccccc3)[C@H](COc3ccc4c(c3)OCO4)C2)cc1` (single isomer, unassigned) [Example 16, (-) trans-l-(4'-Fluorobenzyl)-3-(3',4'-methylenedioxy-phenoxymethyl)-4-phenylpiperidine hydrochloride] the value was 83%; for `Fc1ccc(C2CCN(Cc3ccccc3)CC2COc2ccc3c(c2)OCO3)cc1` (single isomer, unassigned; (+)) [Example 5, (+)trans-l-Benzyl-4-(4'-fluorophenyl)-3-(3',4'-methylenedioxyphenoxymethyl)piperidine hydrochloride], 30%.

Still in this experiment, the particulars now being: Rattus norvegicus, po, read-out: % Inhibition of gastric erosions.
As to `Cc1ccc(OC[C@@H]2CN(Cc3ccccc3)CC[C@H]2c2ccc(F)cc2)cc1` (racemic) [Example 18, (±)-trans-1-Benzyl-4-(4'-fluorophenyl)-3-(4'-methylphenoxymethyl)piperidine maleate], the inhibition in vivo at 25 µmol/kg was determined as 21%.
As for `Cc1ccc(OC[C@@H]2CN(Cc3ccc(F)cc3)CC[C@H]2c2ccc(F)cc2)cc1` (racemic) [Example 19, (±)-trans-1-(4'-Fluorobenzyl)-4-(4'-fluorophenyl)-3-(4'-methylphenoxymethyl)piperidine maleate], the inhibition in vivo at 25 µmol/kg amounted to 69%.
In the case of `Fc1ccc(CN2CC[C@@H](c3ccc(F)cc3)[C@H](COc3ccccc3)C2)cc1` (racemic) [Example 20, (±)-trans-1-(4'-Fluorobenzyl)-4-(4'-fluorophenyl)-3-phenoxymethylpiperidine maleate], the inhibition in vivo at 25 µmol/kg came to 70%.
For the molecule `Fc1ccc(OC[C@@H]2CN(Cc3ccccc3)CC[C@H]2c2ccc(F)cc2)cc1` (racemic) [Example 21, (±)-trans-1-Benzyl-3-(4'-fluorophenoxymethyl)-4-(4'-fluorophenyl)piperidine maleate], the inhibition in vivo at 25 µmol/kg is 27%.
Turning to `Fc1ccc(CN2CC[C@@H](c3ccc(F)cc3)[C@H](COc3ccc(F)cc3)C2)cc1` (racemic) [Example 22, (±)-trans-1-(4'-Fluorobenzyl)-3-(4'-fluorophenoxy-methyl)-4-(4'-fluorophenyl)piperidine maleate], the inhibition in vivo at 25 µmol/kg was 53%.

The subject of a further experiment is Heidenhain pouch of the dog. Put plainly: Gastro-intestinal motility: intraluminal pressure in the Heidenhain pouch. Format: in vivo. The conditions noted are these: dose of 0.5mg/kg i.v., conscious fasted dog, chronic Heidenhain pouch. As to the method:
Pressure changes were recorded via a saline filled catheter inserted, with airtight closure, into the fistula of a chronic Heidenhain pouch of the previously fasted and lightly restrained conscious dog. The catheter was connected to a physiological pressure transducer and pressure changes recorded on a hot wire pen recorder. Compounds were administered when the motility was in a phase of relatively low activity and the dose range determined which induced an increase in the amplitude of rhythmical contractions for a period of at least 4-5 minutes.
With `Fc1ccc([C@@H]2CCN(Cc3ccccc3)C[C@H]2COc2ccc3c(c2)OCO3)cc1` (single isomer, unassigned) [Example 1, (-)-trans-l-Benzyl-4-(4'-fluorophenyl)-3-(3',4'-methylenedioxyphenoxymethyl)piperidine hydrochloride], the “increase in the amplitude of rhythmical contractions for a period of at least 4-5 minutes” value is listed as “active”.

In the next experiment the test system is Cold restraint stress - induced gastric erosions. Put plainly: Cold restraint stress-induced gastric erosions (antiulcer test). It counts as in vivo, Male Wistar rats. The conditions noted are these: Oral Dose 25 µmol/kg in 0.5% methylcellulose, 30 min before 2.5 hours at 4°C in restraint; mucosal damage scored visually; * p<0.05, ** p<0.01 (Wilcoxon). As to the method:
Male Wistar rats, 175-225g bodyweight are used. Forty eight hours prior to testing, animals are placed in mesh-bottomed cages with 10-12 animals per cage. Twenty-four hours prior to testing, animals are placed in the dark at a temperature of l7 °C. Sixteen hours prior to testing, food is removed from the cages. Drugs are made up in 0.5% methylcellulose, and adminstered at a volume of 1.0ml/100g bodyweight. Eight rats per group are used, with usually 1 control group and 2 test groups. Animals are placed in Bollman type restraining cages and arranged in a vertical position. Thirty minutes after dosing the animals are placed in an ambient temperature of 4 °C for 2.5 hours. At the end of this time the rats are sacrificed, the stomachs removed, cut open and pinned out on cork boards. Mucosal damage is assessed visually and scored on a subjective scale. Statistical differences between control and test groups are assessed using a Wilcoxon Ranking Test.
Turning to `COc1ccccc1[C@@H]1CCN(Cc2ccccc2)C[C@H]1COc1ccc2c(c1)OCO2` (racemic) [Example 2, (±)trans 1-Benzyl-4-(2'-methoxyphenyl)-3-(3',4'-methylenedioxyphenoxymethyl)piperidine hydrochloride], the “% Inhibition of gastric erosions” value was 58* %.
On to `Fc1ccc([C@@H]2CCN(Cc3ccccc3)C[C@H]2COc2ccc3c(c2)OCO3)cc1` (single isomer, unassigned) [Example 1, (-)-trans-l-Benzyl-4-(4'-fluorophenyl)-3-(3',4'-methylenedioxyphenoxymethyl)piperidine hydrochloride], for which the “% Inhibition of gastric erosions” value is given as 53** %.
